Tested on: C57BL/KsJ-db/db mice
Test: Blood sugar and triglycerides lowering activity in db/db mice (in vivo)
Conditions: male C57BL/KsJ-db/db mice, 10 mg/kg/day, oral gavage daily for 6 days; for Maximum reduction in blood glucose level (%): plasma glucose, glucose oxidase method; for Triglyceride lowering (%): plasma triglycerides
From the text: Mutation in colonies of laboratory animals and different sensitivities to dietary regimens have made the development of animal models with non-insulin dependent diabetes associated with obesity and insulin resistance possible. Genetic models such as db/db and ob/ob (See Diabetes, (1982) 31(1) : 1- 6) in mice and fa/fa and zucker rats have been developed by the various laboratories for understanding the pathophysiology of disease and testing the efficacy of new antidiabetic compounds (Diabetes, (1983) 32: 830-838; Annu. Rep. Sankyo Res. Lab. (1994) 46 : 1-57). The homozygous animals, C57 BL/KsJ-db/db mice developed by Jackson Laboratory, US, are obese, hyperglycemic, hyperinsulinemic and insulin resistant (J. Clin. Invest., (1990) 85 : 962-967), whereas heterozygous are lean and normoglycemic. In db/db model, mouse progressively develops insulinopenia with age, a feature commonly observed in late stages of human type II diabetes when blood sugar levels are insufficiently controlled. The state of pancreas and its course vary according to the models. Since this model resembles that of type II diabetes mellitus, the compounds of the present invention were tested for blood sugar and triglycerides lowering activities.
Male C57BL/KsJ-db/db mice of 8 to 14 weeks age, having body weight range of 35 to 60 grams, procured from the Jackson Laboraotory, USA, were used in the experiment The mice were provided with standard feed (National Institute of Nutrition, Hyderabad, India) and acidified water, ad libitum. The animals having more than 300 mg / dl blood sugar were used for testing. The number of animals in each group was 4.
The random blood sugar and triglyceride levels were measured by collecting blood (100 µl) through orbital sinus, using heparinised capillary in tubes containing EDTA which was centrifuged to obtain plasma. The plasma glucose and triglycerides levels were measured spectrometrically, by glucose oxidase and glycerol-3-PO4 oxidase/peroxidase enzyme (Dr. Reddy's Lab. Diagnostic Division Kits, Hyderabad, India) methods respectively. On 6th day the blood samples were collected one hour after administration of test compounds / vehicle for assessing the biological activity.
Test compounds were suspended on 0.25 % carboxymethyl cellulose and administered to test group at a dose of 10 mg to 100 mg / kg through oral gavage daily for 6 days. The control group received vehicle (dose 10 ml / kg).

## O=C1NC(=O)C(=Cc2ccc(OCCN3OCc4ccccc4C3=O)cc2)S1 [Example 11, 5-[4-[2-[4-Oxo-3,4-dihydro-1H-2,3-benzoxazin-3-yl]ethoxy]phenylmethylene]thiazolidin-2,4-dione]
  Maximum reduction in blood glucose level (%): 37%
  Triglyceride lowering (%): 60%

## Cc1nn(CCOc2ccc(CC3SC(=O)NC3=O)cc2)c(=O)c2ccccc12 (stereo not shown) [Example 6, 5-[4-[2-[4-Methyl-1-oxo-1,2-dihydro-phthalazin-2-yl]ethoxy]phenylmethyl] thiazolidin-2,4-dione]
  Maximum reduction in blood glucose level (%): 61%
  Triglyceride lowering (%): 40%

Source: EP0971917B1, “THIAZOLIDINEDIONE AND OXAZOLIDINEDIONE DERIVATIVES HAVING ANTIDIABETIC, HYPOLIPIDAEMIC AND ANTIHYPERTENSIVE PROPERTIES” (DR. REDDY'S RESEARCH FOUNDATION, priority 1997, dated 1998)
